This note sets out measurements from EP3212201B1, “NUCLEOSIDE KINASE INHIBITORS” (BCI Pharma, priority 2014, dated 2016).

The structures appear in SMILES notation.

Holding throughout (experiment): FRET-based coupled-enzyme protein kinase inhibition assay
Format in all cases: biochemical
Conditions in all cases: compound at 10 µM, 1% DMSO

One experiment has as its target RPS6KA3 (RSK2) (Homo sapiens, UniProt P51812). In short, it runs like this: (§1)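 FRET peptide (coumarin donor, fluorescein acceptor) was phosphorylated by each kinase in 50 mM HEPES pH 7.5, 10 mM MgCl2, 1 mM EDTA, 0.01% BRIJ-35 for 60 min at room temperature. ATP was at apparent Km, compounds in 1% DMSO. Protease development reagent then cleaved non-phosphorylated peptide over 60 min.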

A further experiment addresses T1, PHKG2 (Homo sapiens, UniProt P15735).
T1 sequence (P15735 1-406): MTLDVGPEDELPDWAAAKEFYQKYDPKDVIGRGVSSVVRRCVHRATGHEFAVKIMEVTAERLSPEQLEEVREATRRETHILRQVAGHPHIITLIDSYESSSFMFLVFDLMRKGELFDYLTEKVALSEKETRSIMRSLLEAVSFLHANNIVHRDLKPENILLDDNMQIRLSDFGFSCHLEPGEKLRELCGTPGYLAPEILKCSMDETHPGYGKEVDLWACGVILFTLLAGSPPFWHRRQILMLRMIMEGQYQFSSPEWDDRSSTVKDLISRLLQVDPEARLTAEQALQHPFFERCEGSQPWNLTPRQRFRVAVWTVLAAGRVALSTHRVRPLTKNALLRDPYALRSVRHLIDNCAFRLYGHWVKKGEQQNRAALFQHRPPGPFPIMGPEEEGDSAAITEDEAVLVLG
The method in brief:
as §1

The next experiment concerns the target PAK4 (Homo sapiens, UniProt O96013). In short, it runs like this:
as §1

The target of a further experiment is T2, IKBKB (IKK beta) (Homo sapiens, UniProt O14920).
T2 sequence (O14920 1-756): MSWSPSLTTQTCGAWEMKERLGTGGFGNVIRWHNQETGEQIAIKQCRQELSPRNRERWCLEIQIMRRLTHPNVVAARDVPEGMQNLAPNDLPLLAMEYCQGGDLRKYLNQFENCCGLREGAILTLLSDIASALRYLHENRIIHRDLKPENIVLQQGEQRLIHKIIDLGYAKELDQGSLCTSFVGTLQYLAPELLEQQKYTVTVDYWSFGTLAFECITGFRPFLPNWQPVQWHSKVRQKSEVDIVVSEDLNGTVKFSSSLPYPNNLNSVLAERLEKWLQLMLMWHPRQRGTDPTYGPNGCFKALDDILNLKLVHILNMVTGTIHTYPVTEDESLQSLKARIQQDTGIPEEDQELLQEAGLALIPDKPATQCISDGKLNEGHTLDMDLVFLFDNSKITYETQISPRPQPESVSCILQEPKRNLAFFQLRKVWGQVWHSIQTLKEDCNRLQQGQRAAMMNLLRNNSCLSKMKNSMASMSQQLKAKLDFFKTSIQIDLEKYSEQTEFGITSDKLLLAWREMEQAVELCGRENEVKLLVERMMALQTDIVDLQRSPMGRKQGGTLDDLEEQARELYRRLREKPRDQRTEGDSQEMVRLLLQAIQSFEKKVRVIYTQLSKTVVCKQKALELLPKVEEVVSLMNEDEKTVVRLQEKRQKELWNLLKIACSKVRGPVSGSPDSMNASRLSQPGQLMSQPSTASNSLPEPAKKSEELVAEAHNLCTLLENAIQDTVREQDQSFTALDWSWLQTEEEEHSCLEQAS
In short, it runs like this: as §1

For a further experiment, the target named is SYK (Homo sapiens, UniProt P43405). In short, it runs like this: as §1
Another experiment has as its target PIM1 (Homo sapiens, UniProt P11309). The method in brief: as §1
A further experiment concerns the target MARK2 (Homo sapiens, UniProt Q7KZI7). In short, it runs like this: as §1
A further experiment concerns the target PDGFRB (PDGFR beta) (Homo sapiens, UniProt P09619). In short, it runs like this: as §1
The next experiment concerns the target FGFR1 (Homo sapiens, UniProt P11362). The method in brief:
as §1

For another experiment, the target named is TEK (Tie2) (Homo sapiens, UniProt Q02763). The method in brief:
as §1

In the next experiment the target is KDR (VEGFR2) (Homo sapiens, UniProt P35968). The method in brief: as §1
Chain of KDR (VEGFR2) (P35968 20-1356, species assumed): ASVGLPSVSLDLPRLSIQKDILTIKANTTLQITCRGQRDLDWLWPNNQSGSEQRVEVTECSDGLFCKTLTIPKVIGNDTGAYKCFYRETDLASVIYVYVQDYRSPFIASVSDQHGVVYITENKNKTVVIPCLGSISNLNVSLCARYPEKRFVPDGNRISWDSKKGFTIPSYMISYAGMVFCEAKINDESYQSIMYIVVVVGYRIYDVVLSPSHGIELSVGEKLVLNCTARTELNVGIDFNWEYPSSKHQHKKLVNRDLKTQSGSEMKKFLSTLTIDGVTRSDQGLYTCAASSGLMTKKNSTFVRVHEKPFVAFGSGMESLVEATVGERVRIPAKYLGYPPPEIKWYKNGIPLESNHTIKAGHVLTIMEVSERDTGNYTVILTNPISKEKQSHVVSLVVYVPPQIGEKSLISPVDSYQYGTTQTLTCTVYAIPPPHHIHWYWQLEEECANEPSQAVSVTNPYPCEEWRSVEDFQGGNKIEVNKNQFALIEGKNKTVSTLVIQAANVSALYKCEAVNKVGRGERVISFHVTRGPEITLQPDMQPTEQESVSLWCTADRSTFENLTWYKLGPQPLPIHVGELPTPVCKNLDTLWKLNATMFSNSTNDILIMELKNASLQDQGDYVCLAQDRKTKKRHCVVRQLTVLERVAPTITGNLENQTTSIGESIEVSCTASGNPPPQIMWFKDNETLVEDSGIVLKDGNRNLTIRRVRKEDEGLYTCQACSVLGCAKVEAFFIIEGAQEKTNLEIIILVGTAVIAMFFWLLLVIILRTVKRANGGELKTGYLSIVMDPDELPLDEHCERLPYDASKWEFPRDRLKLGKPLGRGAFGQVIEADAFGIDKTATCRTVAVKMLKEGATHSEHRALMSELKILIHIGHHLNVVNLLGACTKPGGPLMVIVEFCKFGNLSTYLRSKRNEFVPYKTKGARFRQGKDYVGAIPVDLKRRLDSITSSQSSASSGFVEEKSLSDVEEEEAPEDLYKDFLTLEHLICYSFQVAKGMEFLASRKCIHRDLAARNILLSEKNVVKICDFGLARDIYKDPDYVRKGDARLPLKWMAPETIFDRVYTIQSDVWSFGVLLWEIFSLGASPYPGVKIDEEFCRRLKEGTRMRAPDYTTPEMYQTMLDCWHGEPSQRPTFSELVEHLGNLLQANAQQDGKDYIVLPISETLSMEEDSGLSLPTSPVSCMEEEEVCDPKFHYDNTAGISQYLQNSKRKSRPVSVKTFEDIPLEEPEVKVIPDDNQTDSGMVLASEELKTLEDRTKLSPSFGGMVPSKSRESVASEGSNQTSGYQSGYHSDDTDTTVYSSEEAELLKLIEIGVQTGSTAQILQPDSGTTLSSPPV

Chain of RPS6KA3 (RSK2) (P51812 whole entry, species assumed): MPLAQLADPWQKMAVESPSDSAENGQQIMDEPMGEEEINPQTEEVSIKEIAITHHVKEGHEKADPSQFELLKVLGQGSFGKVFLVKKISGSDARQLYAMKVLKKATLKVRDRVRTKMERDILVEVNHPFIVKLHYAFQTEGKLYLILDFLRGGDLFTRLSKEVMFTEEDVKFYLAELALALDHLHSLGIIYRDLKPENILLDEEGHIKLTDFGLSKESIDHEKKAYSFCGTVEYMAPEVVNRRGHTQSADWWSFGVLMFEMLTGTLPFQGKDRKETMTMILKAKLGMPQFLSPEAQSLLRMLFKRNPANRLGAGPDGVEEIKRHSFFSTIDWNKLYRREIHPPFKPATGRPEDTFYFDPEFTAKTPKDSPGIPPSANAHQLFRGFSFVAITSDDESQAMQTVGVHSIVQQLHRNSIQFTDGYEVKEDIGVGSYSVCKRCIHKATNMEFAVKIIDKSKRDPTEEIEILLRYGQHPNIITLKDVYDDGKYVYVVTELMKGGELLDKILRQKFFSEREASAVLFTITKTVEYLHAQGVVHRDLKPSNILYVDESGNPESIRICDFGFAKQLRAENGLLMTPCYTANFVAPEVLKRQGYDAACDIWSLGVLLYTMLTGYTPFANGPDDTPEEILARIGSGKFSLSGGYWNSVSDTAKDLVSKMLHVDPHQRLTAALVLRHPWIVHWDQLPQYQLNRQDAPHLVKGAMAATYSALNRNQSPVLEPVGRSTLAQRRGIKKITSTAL
Chain of PIM1 (P11309 whole entry, species assumed): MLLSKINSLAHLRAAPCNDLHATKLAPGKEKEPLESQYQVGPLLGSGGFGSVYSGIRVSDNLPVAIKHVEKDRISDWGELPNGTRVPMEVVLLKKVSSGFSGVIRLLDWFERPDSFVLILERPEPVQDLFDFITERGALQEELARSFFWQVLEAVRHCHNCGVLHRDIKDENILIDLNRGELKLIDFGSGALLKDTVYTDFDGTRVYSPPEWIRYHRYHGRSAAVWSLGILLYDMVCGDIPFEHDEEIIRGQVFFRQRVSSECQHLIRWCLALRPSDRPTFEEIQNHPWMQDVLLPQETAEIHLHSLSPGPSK
Chain of FGFR1 (P11362 22-822, species assumed): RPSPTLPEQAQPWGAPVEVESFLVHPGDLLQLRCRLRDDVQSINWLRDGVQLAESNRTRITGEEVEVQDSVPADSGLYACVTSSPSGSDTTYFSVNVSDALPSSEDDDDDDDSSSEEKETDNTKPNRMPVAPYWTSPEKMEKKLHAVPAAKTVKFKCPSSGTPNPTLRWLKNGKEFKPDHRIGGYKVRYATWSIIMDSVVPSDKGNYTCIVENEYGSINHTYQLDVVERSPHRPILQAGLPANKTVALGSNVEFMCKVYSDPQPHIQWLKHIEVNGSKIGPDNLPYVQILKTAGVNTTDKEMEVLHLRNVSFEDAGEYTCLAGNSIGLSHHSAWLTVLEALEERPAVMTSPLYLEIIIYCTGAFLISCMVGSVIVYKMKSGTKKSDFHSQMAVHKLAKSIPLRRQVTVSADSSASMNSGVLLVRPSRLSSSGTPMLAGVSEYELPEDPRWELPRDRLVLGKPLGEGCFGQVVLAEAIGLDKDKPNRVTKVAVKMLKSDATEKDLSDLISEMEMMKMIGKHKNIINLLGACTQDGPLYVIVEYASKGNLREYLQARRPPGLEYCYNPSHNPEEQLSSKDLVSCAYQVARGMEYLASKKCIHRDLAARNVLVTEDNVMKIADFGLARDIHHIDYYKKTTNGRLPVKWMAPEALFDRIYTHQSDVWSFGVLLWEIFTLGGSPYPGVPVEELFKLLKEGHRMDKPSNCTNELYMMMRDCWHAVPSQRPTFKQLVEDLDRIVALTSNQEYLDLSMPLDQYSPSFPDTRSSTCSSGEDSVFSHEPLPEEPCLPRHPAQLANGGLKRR
Chain of PAK4 (O96013 whole entry, species assumed): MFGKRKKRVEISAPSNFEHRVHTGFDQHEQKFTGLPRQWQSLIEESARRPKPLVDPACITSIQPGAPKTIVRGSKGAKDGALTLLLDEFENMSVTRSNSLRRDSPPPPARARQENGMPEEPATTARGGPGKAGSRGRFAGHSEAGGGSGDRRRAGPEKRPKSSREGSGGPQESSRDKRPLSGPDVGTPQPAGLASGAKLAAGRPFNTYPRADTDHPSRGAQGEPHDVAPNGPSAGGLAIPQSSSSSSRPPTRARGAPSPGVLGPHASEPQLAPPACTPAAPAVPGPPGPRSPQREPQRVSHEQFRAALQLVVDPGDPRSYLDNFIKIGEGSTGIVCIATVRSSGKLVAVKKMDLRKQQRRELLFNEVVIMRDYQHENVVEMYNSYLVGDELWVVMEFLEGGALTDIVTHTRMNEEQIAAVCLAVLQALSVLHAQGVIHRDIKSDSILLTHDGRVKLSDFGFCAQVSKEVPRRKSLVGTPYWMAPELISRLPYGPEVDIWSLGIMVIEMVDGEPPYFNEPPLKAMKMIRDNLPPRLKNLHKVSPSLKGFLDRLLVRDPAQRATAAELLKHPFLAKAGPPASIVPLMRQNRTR
Chain of MARK2 (Q7KZI7 whole entry, species assumed): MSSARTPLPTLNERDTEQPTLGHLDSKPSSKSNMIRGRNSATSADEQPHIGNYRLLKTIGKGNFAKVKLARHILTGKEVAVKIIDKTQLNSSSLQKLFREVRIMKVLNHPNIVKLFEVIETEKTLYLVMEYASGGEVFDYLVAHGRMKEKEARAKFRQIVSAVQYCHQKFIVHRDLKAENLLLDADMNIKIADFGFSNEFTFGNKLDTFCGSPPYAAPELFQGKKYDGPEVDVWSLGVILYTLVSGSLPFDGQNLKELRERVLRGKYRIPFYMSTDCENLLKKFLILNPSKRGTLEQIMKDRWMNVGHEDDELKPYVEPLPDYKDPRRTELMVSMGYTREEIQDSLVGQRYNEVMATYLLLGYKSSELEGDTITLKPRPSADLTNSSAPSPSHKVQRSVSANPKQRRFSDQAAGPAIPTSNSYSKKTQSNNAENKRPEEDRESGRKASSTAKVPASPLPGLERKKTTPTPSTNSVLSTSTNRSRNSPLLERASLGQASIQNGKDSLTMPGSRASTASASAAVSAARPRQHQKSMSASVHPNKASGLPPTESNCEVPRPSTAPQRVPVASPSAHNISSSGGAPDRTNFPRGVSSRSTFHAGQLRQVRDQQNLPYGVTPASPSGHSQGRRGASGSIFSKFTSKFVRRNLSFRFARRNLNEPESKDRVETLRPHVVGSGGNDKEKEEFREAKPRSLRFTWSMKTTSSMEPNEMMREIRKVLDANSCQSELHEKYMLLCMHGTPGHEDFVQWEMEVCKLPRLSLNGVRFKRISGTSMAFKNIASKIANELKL

For `CN(C)CCNC(=O)OC[C@H]1O[C@@H](n2cnc3c(N)ncnc32)[C@H](O)[C@@H]1O` [Compound C85], the inhibition (usually the change of the read-out against control, counted positive when it falls) at 10 µM against RPS6KA3 (RSK2) is 7%; on PHKG2, 1%; on PAK4, 1%; at IKBKB (IKK beta) it was -10%; against SYK it was -1%; against PIM1 it was 0%. Besides, the inhibition at 10 µM against MARK2 was 4%; on PDGFRB (PDGFR beta), 8%; on FGFR1, 4%; against TEK (Tie2) it was 0%; against KDR (VEGFR2), 2%.
Consider `Nc1ncnc2c1ncn2[C@@H]1O[C@H](COC(=O)N2CCN(C(=O)N3CCOCC3)CC2)[C@@H](O)[C@H]1O` [Compound C89], for which the inhibition at 10 µM on RPS6KA3 (RSK2) was 0%; against PHKG2, -2%; on PAK4 it was -4%; against IKBKB (IKK beta) it was -10%; against SYK, -5%; against PIM1, -4%. Further, the inhibition at 10 µM against MARK2 is -3%; against PDGFRB (PDGFR beta), 9%; on FGFR1, 16%; against TEK (Tie2) it was -2%; at KDR (VEGFR2), -6%.
Take `CS(=O)(=O)N1CC2(CCN(C(=O)OC[C@H]3O[C@@H](n4cnc5c(N)ncnc54)[C@H](O)[C@@H]3O)CC2)c2ccccc21` [Compound C98]: the inhibition at 10 µM against RPS6KA3 (RSK2) was 4%; against PHKG2, -1%; on PAK4, 7%; at IKBKB (IKK beta), -8%; against SYK, 2%; against PIM1 it was 6%. Further, the inhibition at 10 µM turned out to be 2% against MARK2; 10% at PDGFRB (PDGFR beta); 9% on FGFR1; 58% against TEK (Tie2); 8% at KDR (VEGFR2).
On to `Nc1ncnc2c1ncn2[C@@H]1O[C@H](COC(=O)N2CCS(=O)(=O)CC2)[C@@H](O)[C@H]1O` [Compound C100], for which the inhibition at 10 µM against RPS6KA3 (RSK2) was 1%; against PHKG2, 1%; on PAK4, 2%; against IKBKB (IKK beta) it was -9%; against SYK, -3%; on PIM1, -1%. Moreover, the inhibition at 10 µM on MARK2 is 15%; on PDGFRB (PDGFR beta), 4%; against FGFR1, 0%; against TEK (Tie2) it was 2%; against KDR (VEGFR2), -3%.
